# Source: patent US6635265B1, “Materials and methods useful for the control of insect larvae” (University of Florida Research Foundation, Inc., priority 1999, dated 2003)
# Square brackets hold non-standard residues; d marks the D form. Ends that are not written are not given here.
# What was measured:
# mosquito larvae = experiment: Feeding TMOF and its analogue peptides to mosquito larvae (LD50); assay type: in vivo, Aedes aegypti; details: 100 μl microtiter plates, 7 days, diet of autoclaved yeast (1 mg/ml)
# Source text: TMOF can traverse the gut epithelium, enter the hemolymph and bind a gut receptor (Borovsky, D. and F. Mahmood (1995) “Feeding the mosquito Aedes aegypti with TMOF and its analogs; effect on trypsin biosynthesis and egg development,” Regulatory Peptides 57:273-281.; Borovsky, D., C. A. Powell, J. K. Nayar, J. E. Blalock, and T. K. Hayes (1994) “Characterization and localization of mosquito-gut receptors for trypsin modulating oostatic factor using complementary peptide immunochemistry” FASEB J. 8:350-355.). […] This characteristic permits testing of TMOF and its analogs by feeding them to mosquito and other pest larvae. To determine whether truncated TMOF peptides have an effect on larval growth and development, a series of peptides were synthesized and tested by feeding them to mosquito larvae at concentrations of 0.5 to 5.0 mg/ml (Table 1). Individual, newly hatched Aedes aegypti larvae were maintained in separate microtiter wells on a diet of autoclaved yeast (1 mg/ml). The diet was supplemented with TMOF peptides (Table 1). An identical number of larvae which were maintained on yeast served as a control. […] All control groups survived and larval growth and development was normal. Since larvae swallow only a small portion of the yeast particles that adsorbed the peptides, it is assumed that approximately 1 to 20 ng are taken orally at the high concentrations.
# trypsin biosynthesis [1] = experiment: Injecting TMOF-R analogues into second instar Heliothis virescens: trypsin biosynthesis (BApNA); assay type: in vivo; details: second instar larvae, 24 hours after injection
# Procedure: TMOF analogues (5 to 8 amino acids in length, and polymers of these analogues) in which Arg was added at the C-terminus were evaluated to determine their effect on larval growth and development. A series of analogues were synthesized and tested by feeding them to mosquito larvae at concentrations of (0.5 to 5.0 mg/ml; Table 4). Concentrations of 2.0 to 0.065 mg/ml were used to feed mosquito larvae and calculate the Lethal Dose at 50% mortality (LD50; Table 4) of the TMOF analogues. […] In both cases larval death and trypsin biosynthesis inhibition was noted (Table 4 and 5). […] The advantage of using short analogues connected by Arg is that they can be digested in the gut into short TMOF analogues that can penetrate the midgut much faster than longer analogues.
# Individual second instar larvae of H. virescens were injected with TMOF-R analogues (10 to 0.25 μg per larva) and maintained in separate plastic cups on artificial diet. Twenty-four hours after the injections 3 groups of larvae (3 per group) were assayed for trypsin biosynthesis using BApNA (trypsin specific substrate; Table 5).
# [2] = tested on: first instar H. virescens larvae; experiment: Feeding of first instar H. virescens on TMOF analogs for 14 days; assay type: in vivo, Heliothis virescens; details: first instar larvae fed individually 1.6 µg of TMOF analogs for 14 days
# [3] = tested on: fourth instar Heliothis virescens; experiment: Feeding TMOF analogs to fourth instar H. virescens: larval weight; assay type: in vivo; details: for Weight Gain / Weight mg ± S.E.M. End: fourth instar larvae fed synthetic food and 0.8 mg of TMOF analogs for 5 days; for larval weight and trypsin biosynthesis (in words): fourth instar larvae fed TMOF analog peptides for 5 days
# Procedure: In both cases a reduction in weight gain and trypsin inhibition was noted (Tables 3 and 4).
# (§1) Larvae were fed for 5 to 14 days and larval weight and trypsin activity were measured at the end of the experimental periods. […] When first instar larvae were fed for 14 days on analogs 15 and 16 (Table 4), an 18% and 26% reduction in weight was observed.
# trypsin biosynthesis [4] = experiment: Feeding TMOF analogs to fourth instar H. virescens: gut trypsin biosynthesis ([3H]DFP); assay type: in vivo, Heliothis virescens; details: guts of fourth instar larvae after 5 days feeding on 0.8 mg of TMOF analogs
# Procedure: as §1
substance,measurement,setting,value
(D)YDP ([dY]-Asp-Pro) [43],LD50 mM ± S.E.M.,mosquito larvae,3 0.51 ± 0.05 mM
(D)YDPAP ([dY]DPAP) [46],LD50 mM ± S.E.M.,mosquito larvae,3 0.56 ± 0.03 mM
(DPAR)4,Inhibition (% ± S.E.M.) of trypsin biosynthesis,trypsin biosynthesis [1]; 0.5 μg/injection,3 ± 0.3%
same,Inhibition (% ± S.E.M.) of trypsin biosynthesis,trypsin biosynthesis [1]; 1 μg/injection,35 ± 7%
same,Inhibition (% ± S.E.M.) of trypsin biosynthesis,trypsin biosynthesis [1]; 10 μg/injection,58 ± 36%
AAP (TMOF peptide) [16],LD50 mM ± S.E.M.,mosquito larvae,3 1.08 ± 0.07 mM
ADAAP (TMOF peptide) [56],Number of Dead Larvae,[2],0
same,Weight (mg) ± S.E.M.,[2],141 ± 9 mg
same,Weight Reduction (%) ± S.E.M.,[2],7 ± 0.4%
same,Weight Gain,[3],174.1 mg
same,Weight mg ± S.E.M. End,[3],209.7 ± 12 mg
same,Inhibition (% ± S.E.M.) of trypsin biosynthesis,trypsin biosynthesis [4],5 ± 0.6%
same,Trypsin μg ± S.E.M.,trypsin biosynthesis [4],2.4 ± 0.3 µg
ADP (TMOF peptide) [17],LD50 mM ± S.E.M.,mosquito larvae,3 > 6.6 mM
ADPAP (TMOF peptide) [18],LD50 mM ± S.E.M.,mosquito larvae,4 2.0 ± 0.36 mM
APA (TMOF peptide) [19],LD50 mM ± S.E.M.,mosquito larvae,3 1.0 ± 0.07 mM
DAA (TMOF peptide) [20],LD50 mM ± S.E.M.,mosquito larvae,3 0.91 ± 0.06 mM
DPA,LD50 mM ± S.E.M.,mosquito larvae,3 0.4 ± 0.03 mM
DPAR (TMOF-R analogue peptide) [60],Inhibition (% ± S.E.M.) of trypsin biosynthesis,trypsin biosynthesis [1]; 1 μg/injection,17 ± 2%
same,Inhibition (% ± S.E.M.) of trypsin biosynthesis,trypsin biosynthesis [1]; 10 μg/injection,100%
DYP (TMOF peptide) [24],Number of Dead Larvae,[2],1
same,Weight (mg) ± S.E.M.,[2],149 ± 9 mg
same,Weight Reduction (%) ± S.E.M.,[2],9 ± 0.5%
same,Weight Gain,[3],180.5 mg
same,Weight mg ± S.E.M. End,[3],216.7 ± 13 mg
same,Inhibition (% ± S.E.M.) of trypsin biosynthesis,trypsin biosynthesis [4],14 ± 1.8%
same,Trypsin μg ± S.E.M.,trypsin biosynthesis [4],2.2 ± 0.3 µg
same,LD50 mM ± S.E.M.,mosquito larvae,4 1.27 ± 0.17 mM
FAP (TMOF peptide) [25],LD50 mM ± S.E.M.,mosquito larvae,3 3.8 ± 0.23 mM
FDP (TMOF peptide) [26],LD50 mM ± S.E.M.,mosquito larvae,3 1.98 ± 0.6 mM
FDPAP (TMOF peptide) [27],LD50 mM ± S.E.M.,mosquito larvae,3 0.37 ± 0.15 mM
FSP (TMOF peptide) [28],LD50 mM ± S.E.M.,mosquito larvae,3 2.3 ± 0.13 mM
MPDYP5 (MPDYPPPPP; TMOF peptide) [29],LD50 mM ± S.E.M.,mosquito larvae,3 > 3.0 mM
PAA (TMOF peptide) [30],LD50 mM ± S.E.M.,mosquito larvae,3 2.4 ± 0.34 mM
PAP (TMOF peptide) [31],LD50 mM ± S.E.M.,mosquito larvae,3 3.17 ± 0.14 mM
Y(D)DP (Tyr-[dD]-Pro) [32],LD50 mM ± S.E.M.,mosquito larvae,3 0.28 ± 0.01 mM
Y(D)DPAP (Y[dD]PAP) [33],Number of Dead Larvae,[2],1
same,Weight (mg) ± S.E.M.,[2],152 ± 27 mg
same,Weight Reduction (%) ± S.E.M.,[2],7 ± 1%
same,Weight Gain,[3],153 mg
same,Weight mg ± S.E.M. End,[3],188 ± 12 mg
same,Inhibition (% ± S.E.M.) of trypsin biosynthesis,trypsin biosynthesis [4],15 ± 1.3%
same,Trypsin μg ± S.E.M.,trypsin biosynthesis [4],2.1 ± 0.2 µg
same,LD50 mM ± S.E.M.,mosquito larvae,3 1.2 ± 0.3 mM
YAP (TMOF peptide) [34],LD50 mM ± S.E.M.,mosquito larvae,3 2.3 ± 0.5 mM
YAPAP (TMOF peptide) [62],LD50 mM ± S.E.M.,mosquito larvae,3 0.54 ± 0.13 mM
YDA (TMOF peptide) [36],LD50 mM ± S.E.M.,mosquito larvae,3 1.6 ± 0.13 mM
YDAAP (TMOF peptide) [37],Number of Dead Larvae,[2],0
same,Weight (mg) ± S.E.M.,[2],133 ± 7 mg
same,Weight Reduction (%) ± S.E.M.,[2],18 ± 1%
same,Weight Reduction (%) ± S.E.M.,[2]; listed as 15,18%
same,larval weight and trypsin biosynthesis (in words),[3],Reductions in larval weight and trypsin biosynthesis were observed
same,Weight Gain,[3],179 mg
same,Weight mg ± S.E.M. End,[3],217 ± 9.5 mg
same,Inhibition (% ± S.E.M.) of trypsin biosynthesis,trypsin biosynthesis [4],17 ± 1.6%
same,Trypsin μg ± S.E.M.,trypsin biosynthesis [4],2.1 ± 0.2 µg
same,LD50 mM ± S.E.M.,mosquito larvae,3 1.0 ± 0.18 mM
YDF (TMOF peptide) [38],LD50 mM ± S.E.M.,mosquito larvae,3 0.97 ± 0.11 mM
YDFAP (TMOF peptide) [39],Number of Dead Larvae,[2],1
same,Weight (mg) ± S.E.M.,[2],121 ± 7 mg
same,Weight Reduction (%) ± S.E.M.,[2],26 ± 1.5%
same,Weight Gain,[3],164 mg
same,Weight mg ± S.E.M. End,[3],201 ± 12 mg
same,Inhibition (% ± S.E.M.) of trypsin biosynthesis,trypsin biosynthesis [4],19 ± 1.5%
same,Trypsin μg ± S.E.M.,trypsin biosynthesis [4],2.1 ± 0.2 µg
same,LD50 mM ± S.E.M.,mosquito larvae,3 0.74 ± 0.13 mM
YDG (TMOF peptide) [40],LD50 mM ± S.E.M.,mosquito larvae,3 0.95 ± 0.11 mM
YDLAP (TMOF peptide) [41],LD50 mM ± S.E.M.,mosquito larvae,3 0.6 ± 0.05 mM
YDP (TMOF peptide) [42],Number of Dead Larvae,[2],0
same,Weight (mg) ± S.E.M.,[2],157 ± 10 mg
same,Weight Reduction (%) ± S.E.M.,[2],4 ± 0.2%
same,Weight Gain,[3],186.3 mg
same,Weight mg ± S.E.M. End,[3],223.4 ± 16 mg
same,Inhibition (% ± S.E.M.) of trypsin biosynthesis,trypsin biosynthesis [4],19 ± 3.2%
same,Trypsin μg ± S.E.M.,trypsin biosynthesis [4],2.1 ± 0.3 µg
same,LD50 mM ± S.E.M.,mosquito larvae,5 2.3 ± 0.4 mM
YDPAA (TMOF peptide) [55],LD50 mM ± S.E.M.,mosquito larvae,3 1.6 ± 0.13 mM
YDPAF (TMOF peptide) [44],LD50 mM ± S.E.M.,mosquito larvae,3 0.33 ± 0.2 mM
YDPAFR (TMOF-R analogue peptide) [58],Inhibition (% ± S.E.M.) of trypsin biosynthesis,trypsin biosynthesis [1]; 10 μg/injection,0 ± 0%
YDPAL (TMOF peptide) [45],LD50 mM ± S.E.M.,mosquito larvae,3 0.52 ± 0.03 mM
YDPAP (TMOF peptide) [11],LD50 mM ± S.E.M.,mosquito larvae,3 1.64 ± 0.03 mM
YDPAPR (TMOF-R analogue peptide) [57],Inhibition (% ± S.E.M.) of trypsin biosynthesis,trypsin biosynthesis [1]; 0.25 μg/injection,11 ± 1%
same,Inhibition (% ± S.E.M.) of trypsin biosynthesis,trypsin biosynthesis [1]; 0.5 μg/injection,14 ± 1%
same,Inhibition (% ± S.E.M.) of trypsin biosynthesis,trypsin biosynthesis [1]; 1 μg/injection,31.5 ± 2%
same,Inhibition (% ± S.E.M.) of trypsin biosynthesis,trypsin biosynthesis [1]; 10 μg/injection,53 ± 25%
YDPAR (TMOF-R analogue peptide) [59],Inhibition (% ± S.E.M.) of trypsin biosynthesis,trypsin biosynthesis [1]; 0.5 μg/injection,1 ± 0.07%
same,Inhibition (% ± S.E.M.) of trypsin biosynthesis,trypsin biosynthesis [1]; 1 μg/injection,39 ± 2%
same,Inhibition (% ± S.E.M.) of trypsin biosynthesis,trypsin biosynthesis [1]; 10 μg/injection,33.5 ± 9%
YDPFP (TMOF peptide) [47],LD50 mM ± S.E.M.,mosquito larvae,4 1.7 ± 0.4 mM
YDPGP (TMOF peptide) [48],Number of Dead Larvae,[2],2
same,Weight (mg) ± S.E.M.,[2],153 ± 10 mg
same,Weight Reduction (%) ± S.E.M.,[2],6 ± 0.4%
same,Weight Reduction (%) ± S.E.M.,[2]; listed as 16,26%
same,larval weight and trypsin biosynthesis (in words),[3],Reductions in larval weight and trypsin biosynthesis were observed
same,Weight Gain,[3],163.1 mg
same,Weight mg ± S.E.M. End,[3],199.8 ± 11 mg
same,Inhibition (% ± S.E.M.) of trypsin biosynthesis,trypsin biosynthesis [4],17 ± 1%
same,Trypsin μg ± S.E.M.,trypsin biosynthesis [4],2.1 ± 0.1 µg
same,LD50 mM ± S.E.M.,mosquito larvae,5 1.1 ± 0.18 mM
YDPLP (TMOF peptide) [49],LD50 mM ± S.E.M.,mosquito larvae,3 1.5 ± 0.04 mM
YEPAP (TMOF peptide) [50],LD50 mM ± S.E.M.,mosquito larvae,3 0.35 ± 0.02 mM
YFPAP (TMOF peptide) [51],LD50 mM ± S.E.M.,mosquito larvae,3 0.64 ± 0.03 mM
YNPAP (TMOF peptide) [52],LD50 mM ± S.E.M.,mosquito larvae,3 0.55 ± 0.03 mM
YSF (TMOF peptide) [53],LD50 mM ± S.E.M.,mosquito larvae,3 1.08 ± 0.12 mM
